# Test results as given in patent US20260305610A1, “TRIAZOLE COMPOUND, AND PREPARATION METHOD THEREFOR, HERBICIDAL COMPOSITION AND USE THEREOF” (QINGDAO KINGAGROOT CHEMICAL COMPOUND CO., LTD., priority 2023, published 2026).
# Tested on: weeds
# Experiment: Activity assay of compositions: soil sealing treatment (S), fresh weight inhibition and combined effect (Gowing method)
# Assay type: in vivo
# Conditions: 21 d
# Method: The required active ingredient B was purchased from a reagent company or a technical material manufacturer or synthesized by a conventional method. The technical materials were all dissolved with acetone solvents and diluted with aqueous solution of 0.1% Tween-80 emulsifier, which should be used immediately after dilution.
# • Weeds were cultivated in a controllable sunlight greenhouse at 20 to 30° C., in natural light, and with relative humidity of 57% to 72%. […] The test soil was quantitatively filled to ¾ of the pot, and then watered from the bottom of the pot to completely wet the soil to saturation. The test weed seeds were accelerated to just germinate, and then evenly and quantitatively broadcasted on the soil surface, covered with 0.5-1 cm soil according to the sizes of the seeds, and ready for use 72 hours after sowing.
# Each treatment was repeated 4 times. Four pots with 20 weed seeds sowed per pot were treated each time.
# The well-sowed test materials were evenly placed on a platform with an area of 0.5 m^2, and foliage spraying was carried out by the 3WP-2000-type walking spray tower at a dosage of 450 kg/ha and a spray pressure of 0.3 MPa. After all the solution was sprayed, the air valve was closed. And 30 seconds later, the door of the spray tower was opened, and the nutritional bowl was taken out. Next, the air valve was opened, and the spray tube was cleaned by spraying 50 ml of water.
# A method for investigating absolute numbers was employed. Whole seedlings of survival weeds were cut off along the soil surface with a blade, and the fresh weight of the weeds was weighed using an analytical balance. For dead weeds, the fresh weight thereof was zero.
# The investigation was performed 21 days after the treatment for once in total.
# The theoretical fresh weight inhibition rate of a mixed combination of each treatment was calculated by the Gowing method (E0=X+Y−X*Y/100). Then compared with the measured inhibition rate (E), the type of the combined effect of the combination of the two on weeds was evaluated, which was a synergistic effect when E−E0>10%; an antagonistic effect when E−E0<−10%; an additional effect when −10%≤E−E0≤10%. An optimal ratio was determined according to factors such as the actual control effects, characteristics of herbicides, balance of the formulation, etc. In the formula, X represents the fresh weight inhibition rate of the active ingredient A in a dosage of P; Y represents the fresh weight inhibition rate of the active ingredient B in a dosage of Q. The statistical results are shown in Table 4.
# [1] = Commelina communis, B 15 g a.i./ha
# [2] = Commelina communis, B 30 g a.i./ha
# [3] = Eclipta prostrata, B 150 g a.i./ha
# [4] = Eclipta prostrata, B 300 g a.i./ha
# [5] = Eclipta prostrata, B 15 g a.i./ha
# [6] = Eclipta prostrata, B 30 g a.i./ha
# [7] = Eleocharis yokoscensis, B 150 g a.i./ha
# [8] = Eleocharis yokoscensis, B 300 g a.i./ha
# [9] = Eclipta prostrata, B 7.5 g a.i./ha
# [10] = Eclipta prostrata, B 75 g a.i./ha
# [11] = Silene conoidea, B 30 g a.i./ha
# [12] = Silene conoidea, B 60 g a.i./ha
compound,measurement,setting,value
C#CCN1C(=O)COc2cc(F)c(N3C(=O)C4=C(CCCC4)C3=O)cc21 [Flumioxazin],Control effect of B applied alone in a corresponding dose (%),[1],35.0%
same,Control effect of B applied alone in a corresponding dose (%),[2],50.6%
CC(C)c1ccc(NC(=O)N(C)C)cc1 [Isoproturon],Control effect of B applied alone in a corresponding dose (%),"Lolium temulentum, B 375 g a.i./ha",37.1%
same,Control effect of B applied alone in a corresponding dose (%),"Lolium temulentum, B 750 g a.i./ha",58.2%
CS(=O)(=O)c1cc(C(F)(F)F)ccc1C(=O)c1cnoc1C1CC1 [Isoxaflutole],Control effect of B applied alone in a corresponding dose (%),"Amaranthus retroflexus, B 15 g a.i./ha",36.7%
same,Control effect of B applied alone in a corresponding dose (%),"Amaranthus retroflexus, B 30 g a.i./ha",50.3%
CN(C(=O)COc1nc2ccccc2s1)c1ccccc1 [Mefenacet],Control effect of B applied alone in a corresponding dose (%),[3],40.6%
same,Control effect of B applied alone in a corresponding dose (%),[4],69.7%
COc1cc(OC)nc(NC(=O)NS(=O)(=O)c2c(C3=NOCC(C)O3)c(Cl)nn2C)n1 (centres unmarked) [Metazosulfuron],Control effect of B applied alone in a corresponding dose (%),[5],51.6%
same,Control effect of B applied alone in a corresponding dose (%),[6],69.2%
CSc1nnc(C(C)(C)C)c(=O)n1N [Metribuzin],Control effect of B applied alone in a corresponding dose (%),[7],40.6%
same,Control effect of B applied alone in a corresponding dose (%),[8],58.3%
CCN(CC)C(=O)C(C)Oc1cccc2ccccc12 (centres unmarked) [Napropamide],Control effect of B applied alone in a corresponding dose (%),"Descurainia sophia, B 150 g a.i./ha",38.6%
same,Control effect of B applied alone in a corresponding dose (%),"Descurainia sophia, B 300 g a.i./ha",55.7%
CC(C)(C)c1nn(-c2cc(OCC#N)c(Cl)cc2Cl)c(=O)o1 [Oxadiargyl],Control effect of B applied alone in a corresponding dose (%),"Solanum nigrum, B 45 g a.i./ha",51.2%
same,Control effect of B applied alone in a corresponding dose (%),"Solanum nigrum, B 90 g a.i./ha",64.7%
CC(C)Oc1cc(-n2nc(C(C)(C)C)oc2=O)c(Cl)cc1Cl [Oxadiazon],Control effect of B applied alone in a corresponding dose (%),"Solanum nigrum, B 30 g a.i./ha",45.8%
same,Control effect of B applied alone in a corresponding dose (%),"Solanum nigrum, B 60 g a.i./ha",53.5%
CC1=C(c2ccccc2)C(=O)N(C(C)(C)c2cc(Cl)cc(Cl)c2)CO1 [Oxaziclomefone],Control effect of B applied alone in a corresponding dose (%),[9],38.9%
same,Control effect of B applied alone in a corresponding dose (%),[5],56.8%
CCC(CC)Nc1c([N+](=O)[O-])cc(C)c(C)c1[N+](=O)[O-] [Pendimethalin],Control effect of B applied alone in a corresponding dose (%),[3],45.5%
same,Control effect of B applied alone in a corresponding dose (%),[4],63.2%
CC(C)=C1OC(=O)N(c2cc(OC3CCCC3)c(Cl)cc2F)C1=O [Pentoxazone],Control effect of B applied alone in a corresponding dose (%),[6],40.5%
same,Control effect of B applied alone in a corresponding dose (%),"Eclipta prostrata, B 60 g a.i./ha",61.4%
CCCOCCN(C(=O)CCl)c1c(CC)cccc1CC [Pretilachlor],Control effect of B applied alone in a corresponding dose (%),[10],38.4%
same,Control effect of B applied alone in a corresponding dose (%),[3],68.3%
CSc1nc(NC(C)C)nc(NC(C)C)n1 [Prometryn],Control effect of B applied alone in a corresponding dose (%),[7],42.1%
same,Control effect of B applied alone in a corresponding dose (%),[8],56.9%
CCCc1ccc2nc(Cl)c(S(=O)(=O)NC(=O)Nc3nc(OC)cc(OC)n3)n2n1 [Propyrisulfuron],Control effect of B applied alone in a corresponding dose (%),[9],42.8%
same,Control effect of B applied alone in a corresponding dose (%),[5],63.0%
CCCN(CCC)C(=O)SCc1ccccc1 [Prosulfocarb],Control effect of B applied alone in a corresponding dose (%),"Lolium multiflorum, B 300 g a.i./ha",46.5%
same,Control effect of B applied alone in a corresponding dose (%),"Lolium multiflorum, B 600 g a.i./ha",64.2%
C#CCN(C)c1c(C#N)cnn1-c1nn2c(c1Cl)CCCC2 [Pyraclonil],Control effect of B applied alone in a corresponding dose (%),"Eclipta prostrata, B 37.5 g a.i./ha",47.0%
same,Control effect of B applied alone in a corresponding dose (%),[10],65.8%
COCc1cccc(C(O)c2nc(OC)cc(OC)n2)c1NS(=O)(=O)C(F)F (centres unmarked) [Pyrimisulfan],Control effect of B applied alone in a corresponding dose (%),[9],54.4%
same,Control effect of B applied alone in a corresponding dose (%),[5],73.7%
Cn1nc(C(F)(F)F)c(CS(=O)(=O)C2=NOC(C)(C)C2)c1OC(F)F [Pyroxasulfone],Control effect of B applied alone in a corresponding dose (%),"Lolium multiflorum, B 30 g a.i./ha",40.6%
same,Control effect of B applied alone in a corresponding dose (%),"Lolium multiflorum, B 60 g a.i./ha",62.7%
CCc1cccc(C)c1N(C(=O)CCl)[C@@H](C)COC [S-metolachlor],Control effect of B applied alone in a corresponding dose (%),"Amaranthus retroflexus, B 150 g a.i./ha",41.4%
same,Control effect of B applied alone in a corresponding dose (%),"Amaranthus retroflexus, B 300 g a.i./ha",64.6%
CC(C)N(C)S(=O)(=O)NC(=O)c1cc(-n2c(=O)cc(C(F)(F)F)n(C)c2=O)c(F)cc1Cl [Saflufenacil],Control effect of B applied alone in a corresponding dose (%),[9],50.8%
same,Control effect of B applied alone in a corresponding dose (%),[5],69.6%
Cc1nn(-c2cc(NS(C)(=O)=O)c(Cl)cc2Cl)c(=O)n1C(F)F [Sulfentrazone],Control effect of B applied alone in a corresponding dose (%),"Solanum nigrum, B 15 g a.i./ha",48.5%
same,Control effect of B applied alone in a corresponding dose (%),"Solanum nigrum, B 30 g a.i./ha",60.0%
CS(=O)(=O)c1ccc(C(=O)C2C(=O)CCCC2=O)c(Cl)c1COCC1CCCO1 (centres unmarked) [Tefuryltrione],Control effect of B applied alone in a corresponding dose (%),"Ammannia arenaria, B 7.5 g a.i./ha",32.9%
same,Control effect of B applied alone in a corresponding dose (%),"Ammannia arenaria, B 15 g a.i./ha",55.2%
CCNc1nc(Cl)nc(NC(C)(C)C)n1 [Terbuthylazine],Control effect of B applied alone in a corresponding dose (%),"Chloris virgata, B 225 g a.i./ha",35.5%
same,Control effect of B applied alone in a corresponding dose (%),"Chloris virgata, B 450 g a.i./ha",52.7%
CN1C[C@H](c2cccc(C(F)(F)F)c2)[C@@H](C(=O)Nc2ccccc2F)C1=O [Tetflupyrolimet],Control effect of B applied alone in a corresponding dose (%),"Monochoria vaginalis, B 7.5 g a.i./ha",43.9%
same,Control effect of B applied alone in a corresponding dose (%),"Monochoria vaginalis, B 15 g a.i./ha",68.1%
COC(=O)c1csc(C)c1S(=O)(=O)NC(=O)n1nc(OC)n(C)c1=O [Thiencarbazone-methyl],Control effect of B applied alone in a corresponding dose (%),[1],45.4%
same,Control effect of B applied alone in a corresponding dose (%),[2],56.0%
COC(=O)c1sccc1S(=O)(=O)NC(=O)Nc1nc(C)nc(OC)n1 [Thifensulfuron-methyl],Control effect of B applied alone in a corresponding dose (%),[11],47.5%
same,Control effect of B applied alone in a corresponding dose (%),[12],62.1%
COC(=O)CCNC(=O)C(C)Sc1cc(-n2c(=O)cc(C(F)(F)F)n(C)c2=O)c(F)cc1Cl (centres unmarked) [Tiafenacil],Control effect of B applied alone in a corresponding dose (%),[2],48.2%
same,Control effect of B applied alone in a corresponding dose (%),"Commelina communis, B 60 g a.i./ha",61.4%
COc1nc(OC)nc(C(=O)c2cccc(F)c2N(C)S(=O)(=O)C(F)F)n1 [Triafamone],Control effect of B applied alone in a corresponding dose (%),[9],41.1%
same,Control effect of B applied alone in a corresponding dose (%),[5],68.2%
C#CCN1C(=O)C(F)(F)Oc2cc(F)c(-n3c(=O)n(C)c(=S)n(C)c3=O)cc21 [Trifludimoxazin],Control effect of B applied alone in a corresponding dose (%),[11],44.4%
same,Control effect of B applied alone in a corresponding dose (%),[12],66.7%
CCCN(CCC)c1c([N+](=O)[O-])cc(C(F)(F)F)cc1[N+](=O)[O-] [Trifluralin],Control effect of B applied alone in a corresponding dose (%),[3],45.7%
same,Control effect of B applied alone in a corresponding dose (%),[4],67.5%
